Data reported in ChEMBL document CHEMBL1131723, “Synthesis and structure-activity relationship of novel glycylcycline derivatives leading to the discovery of GAR-936” (1999).
In brackets after ≈: the same amount, converted by molar mass.

Experiments:
Assay type in all cases: functional
[1] = tested on: Staphylococcus aureus; assay: In vitro antibacterial activity against Staphylococcus aureus Smith sensitive
[2] = tested on: Escherichia coli; assay: In vitro antibacterial activity against Escherichia coli J3272 Tet D
[3] = tested on: Staphylococcus aureus; assay: In vitro antibacterial activity against Staphylococcus aureus UBMS 90-3 sensitive
[4] = tested on: Escherichia coli; assay: In vitro antibacterial activity against Escherichia coli UBMS 90-5 sensitive
[5] = tested on: Escherichia coli; assay: In vitro antibacterial activity against Escherichia coli PRP1 Tet A
[6] = tested on: Enterococcus; assay: In vitro antibacterial activity against Enterococcus ATCC 29212
[7] = tested on: Escherichia coli; assay: In vitro antibacterial activity against Escherichia coli UBMS 90-4 Tet M
[8] = tested on: Staphylococcus aureus; assay: In vitro antibacterial activity against Staphylococcus aureus UBMS 88-7 Tet K
[9] = tested on: Staphylococcus aureus; assay: In vitro antibacterial activity against Staphylococcus aureus UBMS 90-1 Tet M
[10] = tested on: Escherichia coli; assay: In vitro antibacterial activity against Escherichia coli J3272 Tet C
[11] = tested on: Escherichia coli; assay: In vitro antibacterial activity against Escherichia coli UBMS 88-1 Tet B

| SMILES | MIC [1] | MIC [2] | MIC [3] | MIC [4] | MIC [5] | MIC [6] | MIC [7] | MIC [8] | MIC [9] | MIC [10] | MIC [11] |
| --- | --- | --- | --- | --- | --- | --- | --- | --- | --- | --- | --- |
| CN(C)c1cc(NC(=O)CN2CCSCC2)c(O)c2c1CC1CC3[C@H](N(C)C)C(=O)C(C(N)=O)=C(O)[C@@]3(O)C(=O)C1=C2O (stereo partly specified) | 0.5 µg/mL (≈ 0.812 µM) | 16 µg/mL (≈ 26 µM) | 1 µg/mL (≈ 1.62 µM) | > 32 µg/mL | > 32 µg/mL | 0.25 µg/mL (≈ 0.406 µM) | > 32 µg/mL | 4 µg/mL (≈ 6.5 µM) | 1 µg/mL (≈ 1.62 µM) | > 32 µg/mL | > 32 µg/mL |
| CCCCCCCCCCCNCC(=O)Nc1cc(N(C)C)c2c(c1O)C(=O)C1=C(O)[C@]3(O)C(O)=C(C(N)=O)C(=O)[C@@H](N(C)C)C3CC1C2 (stereo partly specified) | 0.5 µg/mL (≈ 0.731 µM) | 32 µg/mL (≈ 46.8 µM) | 0.5 µg/mL (≈ 0.731 µM) | 16 µg/mL (≈ 23.4 µM) | 32 µg/mL (≈ 46.8 µM) | 2 µg/mL (≈ 2.92 µM) | 32 µg/mL (≈ 46.8 µM) | 2 µg/mL (≈ 2.92 µM) | 16 µg/mL (≈ 23.4 µM) | 32 µg/mL (≈ 46.8 µM) | 32 µg/mL (≈ 46.8 µM) |
| CN(C)c1cc(NC(=O)CNC2CCCCCCC2)c(O)c2c1CC1CC3[C@H](N(C)C)C(=O)C(C(N)=O)=C(O)[C@@]3(O)C(=O)C1=C2O (stereo partly specified) | 0.5 µg/mL (≈ 0.782 µM) | 0.5 µg/mL (≈ 0.782 µM) | 0.25 µg/mL (≈ 0.391 µM) | 4 µg/mL (≈ 6.25 µM) | 2 µg/mL (≈ 3.13 µM) | 0.25 µg/mL (≈ 0.391 µM) | 2 µg/mL (≈ 3.13 µM) | 0.5 µg/mL (≈ 0.782 µM) | 1 µg/mL (≈ 1.56 µM) | 2 µg/mL (≈ 3.13 µM) | 4 µg/mL (≈ 6.25 µM) |
| CN(C)c1cc(NC(=O)CNCC2CC2)c(O)c2c1CC1CC3[C@H](N(C)C)C(=O)C(C(N)=O)=C(O)[C@@]3(O)C(=O)C1=C2O (stereo partly specified) | 0.5 µg/mL (≈ 0.857 µM) | 0.25 µg/mL (≈ 0.428 µM) | 0.5 µg/mL (≈ 0.857 µM) | 0.5 µg/mL (≈ 0.857 µM) | 4 µg/mL (≈ 6.85 µM) | 0.25 µg/mL (≈ 0.428 µM) | 0.5 µg/mL (≈ 0.857 µM) | 4 µg/mL (≈ 6.85 µM) | 1 µg/mL (≈ 1.71 µM) | 0.5 µg/mL (≈ 0.857 µM) | 0.5 µg/mL (≈ 0.857 µM) |
| CN(C)c1cc(NC(=O)CNCc2ccccn2)c(O)c2c1CC1CC3[C@H](N(C)C)C(=O)C(C(N)=O)=C(O)[C@@]3(O)C(=O)C1=C2O (stereo partly specified) | 4 µg/mL (≈ 6.44 µM) | 8 µg/mL (≈ 12.9 µM) | 4 µg/mL (≈ 6.44 µM) | 16 µg/mL (≈ 25.8 µM) | 32 µg/mL (≈ 51.6 µM) | 2 µg/mL (≈ 3.22 µM) | 8 µg/mL (≈ 12.9 µM) | 32 µg/mL (≈ 51.6 µM) | 8 µg/mL (≈ 12.9 µM) | 16 µg/mL (≈ 25.8 µM) | 16 µg/mL (≈ 25.8 µM) |

The next compounds have a lower MIC [1] than those just listed; values first:

| MIC [1] | MIC [2] | MIC [3] | MIC [4] | MIC [5] | MIC [6] | MIC [7] | MIC [8] | MIC [9] | MIC [10] | MIC [11] | SMILES |
| --- | --- | --- | --- | --- | --- | --- | --- | --- | --- | --- | --- |
| 0.25 µg/mL (≈ 0.439 µM) | 2 µg/mL (≈ 3.51 µM) | 0.5 µg/mL (≈ 0.878 µM) | 2 µg/mL (≈ 3.51 µM) | 32 µg/mL (≈ 56.2 µM) | 0.25 µg/mL (≈ 0.439 µM) | 2 µg/mL (≈ 3.51 µM) | 4 µg/mL (≈ 7.02 µM) | 0.5 µg/mL (≈ 0.878 µM) | 8 µg/mL (≈ 14 µM) | 4 µg/mL (≈ 7.02 µM) | CN(C)c1cc(NC(=O)CNC2CC2)c(O)c2c1CC1CC3[C@H](N(C)C)C(=O)C(C(N)=O)=C(O)[C@@]3(O)C(=O)C1=C2O (stereo partly specified) |
| 0.25 µg/mL (≈ 0.401 µM) | 0.25 µg/mL (≈ 0.401 µM) | 0.25 µg/mL (≈ 0.401 µM) | 0.5 µg/mL (≈ 0.802 µM) | 1 µg/mL (≈ 1.6 µM) | 0.12 µg/mL (≈ 0.192 µM) | 0.5 µg/mL (≈ 0.802 µM) | 0.5 µg/mL (≈ 0.802 µM) | 0.5 µg/mL (≈ 0.802 µM) | 0.5 µg/mL (≈ 0.802 µM) | 0.5 µg/mL (≈ 0.802 µM) | CN(C)c1cc(NC(=O)CNC2CC3CCC2C3)c(O)c2c1CC1CC3[C@H](N(C)C)C(=O)C(C(N)=O)=C(O)[C@@]3(O)C(=O)C1=C2O (stereo partly specified) |
| 0.25 µg/mL (≈ 0.403 µM) | 0.5 µg/mL (≈ 0.807 µM) | 0.25 µg/mL (≈ 0.403 µM) | 0.5 µg/mL (≈ 0.807 µM) | 4 µg/mL (≈ 6.45 µM) | 0.25 µg/mL (≈ 0.403 µM) | 0.5 µg/mL (≈ 0.807 µM) | 2 µg/mL (≈ 3.23 µM) | 0.5 µg/mL (≈ 0.807 µM) | 2 µg/mL (≈ 3.23 µM) | 2 µg/mL (≈ 3.23 µM) | CN(C)c1cc(NC(=O)CNCc2ccccc2)c(O)c2c1CC1CC3[C@H](N(C)C)C(=O)C(C(N)=O)=C(O)[C@@]3(O)C(=O)C1=C2O (stereo partly specified) |
| 0.12 µg/mL (≈ 0.196 µM) | 0.12 µg/mL (≈ 0.196 µM) | 0.06 µg/mL (≈ 0.0978 µM) | 0.25 µg/mL (≈ 0.407 µM) | 0.5 µg/mL (≈ 0.815 µM) | 0.12 µg/mL (≈ 0.196 µM) | 0.25 µg/mL (≈ 0.407 µM) | 2 µg/mL (≈ 3.26 µM) | 0.25 µg/mL (≈ 0.407 µM) | 0.5 µg/mL (≈ 0.815 µM) | 0.5 µg/mL (≈ 0.815 µM) | CCCCCCNCC(=O)Nc1cc(N(C)C)c2c(c1O)C(=O)C1=C(O)[C@]3(O)C(O)=C(C(N)=O)C(=O)[C@@H](N(C)C)C3CC1C2 (stereo partly specified) |
| 0.12 µg/mL (≈ 0.205 µM) | 0.25 µg/mL (≈ 0.427 µM) | 0.25 µg/mL (≈ 0.427 µM) | 0.5 µg/mL (≈ 0.854 µM) | 1 µg/mL (≈ 1.71 µM) | 0.12 µg/mL (≈ 0.205 µM) | 0.25 µg/mL (≈ 0.427 µM) | 2 µg/mL (≈ 3.41 µM) | 0.5 µg/mL (≈ 0.854 µM) | 0.5 µg/mL (≈ 0.854 µM) | 0.5 µg/mL (≈ 0.854 µM) | CCCCNCC(=O)Nc1cc(N(C)C)c2c(c1O)C(=O)C1=C(O)[C@]3(O)C(O)=C(C(N)=O)C(=O)[C@@H](N(C)C)C3CC1C2 (stereo partly specified) |
| 0.12 µg/mL (≈ 0.201 µM) | 0.5 µg/mL (≈ 0.837 µM) | 0.12 µg/mL (≈ 0.201 µM) | 0.5 µg/mL (≈ 0.837 µM) | 1 µg/mL (≈ 1.67 µM) | 0.06 µg/mL (≈ 0.1 µM) | 0.5 µg/mL (≈ 0.837 µM) | 0.25 µg/mL (≈ 0.418 µM) | 0.25 µg/mL (≈ 0.418 µM) | 0.25 µg/mL (≈ 0.418 µM) | 0.5 µg/mL (≈ 0.837 µM) | CN(C)c1cc(NC(=O)CN2CCCCC2)c(O)c2c1CC1CC3[C@H](N(C)C)C(=O)C(C(N)=O)=C(O)[C@@]3(O)C(=O)C1=C2O (stereo partly specified) |
